Measurements taken from patent US12630521B2, “Arylamides and methods of use thereof” (Genzyme Corporation, priority 2019, dated 2026).

Tests used:
[1] = molecular target: T1, human Cystic Fibrosis Transmembrane Conductance Regulator (CFTR) harboring the ΔF508 mutation (Homo sapiens, UniProt P13569, DEL508-508); test: H441 cell Emax and EC50: HRP-tagged ΔF508-CFTR cell-surface luminescence assay; type: cell-based; conditions: H441 cells expressing HRP-tagged ΔF508-CFTR, 27° C. for two nights; for EC50: 15-point dose-response; for Emax: NCI-H441, % of maximum VX809 signal
T1 construct: expressed in transfected cells; host or cells: H441 carcinoma cell line (G418 selection)
T1 sequence (P13569 with tags, fused parts or gaps DEL508-508): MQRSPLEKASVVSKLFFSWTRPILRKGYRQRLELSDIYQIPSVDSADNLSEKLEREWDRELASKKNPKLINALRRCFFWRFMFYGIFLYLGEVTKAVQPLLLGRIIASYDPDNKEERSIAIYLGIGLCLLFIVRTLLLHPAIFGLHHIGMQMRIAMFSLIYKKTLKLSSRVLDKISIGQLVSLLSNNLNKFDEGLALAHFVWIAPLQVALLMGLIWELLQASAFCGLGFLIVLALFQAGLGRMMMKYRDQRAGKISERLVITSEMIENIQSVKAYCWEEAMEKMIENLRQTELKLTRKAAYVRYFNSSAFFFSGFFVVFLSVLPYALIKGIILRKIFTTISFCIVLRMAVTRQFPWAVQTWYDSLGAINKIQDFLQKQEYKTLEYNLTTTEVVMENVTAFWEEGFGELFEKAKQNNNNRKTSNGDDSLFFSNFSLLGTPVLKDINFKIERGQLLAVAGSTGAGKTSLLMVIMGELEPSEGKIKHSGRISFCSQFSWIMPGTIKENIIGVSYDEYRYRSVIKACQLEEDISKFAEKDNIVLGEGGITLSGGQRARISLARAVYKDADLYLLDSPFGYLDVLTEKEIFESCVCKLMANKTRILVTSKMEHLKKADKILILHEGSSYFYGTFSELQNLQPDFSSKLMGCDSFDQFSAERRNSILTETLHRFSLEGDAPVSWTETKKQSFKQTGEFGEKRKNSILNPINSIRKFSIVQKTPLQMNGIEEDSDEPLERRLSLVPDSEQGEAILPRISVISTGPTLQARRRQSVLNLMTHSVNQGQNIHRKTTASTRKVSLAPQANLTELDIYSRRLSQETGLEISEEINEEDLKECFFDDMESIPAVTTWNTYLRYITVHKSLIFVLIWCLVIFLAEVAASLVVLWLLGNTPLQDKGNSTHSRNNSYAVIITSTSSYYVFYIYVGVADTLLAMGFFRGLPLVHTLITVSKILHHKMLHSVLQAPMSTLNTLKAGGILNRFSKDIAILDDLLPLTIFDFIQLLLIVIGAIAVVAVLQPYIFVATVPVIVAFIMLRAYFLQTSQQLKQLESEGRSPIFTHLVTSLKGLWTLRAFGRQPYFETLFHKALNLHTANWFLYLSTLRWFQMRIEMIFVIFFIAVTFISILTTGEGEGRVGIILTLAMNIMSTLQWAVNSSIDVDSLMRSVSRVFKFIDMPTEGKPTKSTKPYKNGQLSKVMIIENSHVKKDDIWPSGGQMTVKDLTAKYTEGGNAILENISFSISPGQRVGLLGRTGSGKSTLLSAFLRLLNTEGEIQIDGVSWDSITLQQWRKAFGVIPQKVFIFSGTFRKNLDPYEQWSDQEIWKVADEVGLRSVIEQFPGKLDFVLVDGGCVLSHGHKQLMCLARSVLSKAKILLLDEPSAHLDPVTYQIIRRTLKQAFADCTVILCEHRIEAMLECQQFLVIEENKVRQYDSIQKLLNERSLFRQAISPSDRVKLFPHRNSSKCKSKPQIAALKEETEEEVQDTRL
Excerpt: Example 36: H441 Cell Emax and EC50
Two cell lines were used, the H441 carcinoma line and the CFHBE41o− (41o−) human bronchial epithelial line. Both cell lines expressed human Cystic Fibrosis Transmembrane Conductance Regulator (CFTR) harboring the ΔF508 mutation and with an in-frame fusion in CFTR extracellular loop 4 of Horse Radish Peroxidase (HRP) under control of the CMV promoter. In the presence of the HRP tag, ΔF508-CFTR transported to the cell surface was detectable upon addition of an HRP substrate (Luminata Forte). Both cell types were cultivated at 37° C. with CO2.
For both cell types, the medium was changed every other day unless the culture was at low % confluence. Cells were used for the assays at ˜75% confluence.
DMSO/Compound Dilutions Plate for 15-Point Dose-Response Testing
To a polypropylene (PP) 384-well plate, 15 μls DMSO was added to all wells in columns 1-22 and 24 (low Control). 15 μls of 260 μM VX809 (Lumacaftor), Selleckchem S1565, was added to column 23 wells (high Control). 15 μls of 10 mM test compound or VX809 (control) were added to wells of row A. Serial dilutions of Row A compound were performed 2×15 μls in rows A through 0 (15-point).
A PP, 384-well plate containing the appropriate cell culture medium was prepared for each assay plate with 100 μls per well. For the doxycycline-induced 41o− cells, doxycycline for both the assay plate and the medium dilution plate was added at 0.0005 mg/ml to the medium.
Both cell lines were plated for the assay at 30 μls per 384-well at 3.4×10^e5 cells per ml (˜10K cells/well). H441 cells were plated on opaque, white, Corning plate 3704. 41o− cells were plated on collagen-coated opaque, white, Corning plate 356665. For 41o− cells, doxycycline was added to the medium.
Compound Addition/Assay Incubation
Using FX (Beckman) protocol, 10 μls diluted compound or medium was added per well to the Assay Plate as: 2 μls DMSO Dilution plate well is diluted in 100 μls of the Medium Dilution Plate well, mixed, and 10 μls is transferred to the Assay Plate.
The final assay dilution series is 24.5, 12.3, 6.1, 3.1, 1.5, 0.8, 0.4, 0.2, 0.1, 0.05, 0.02, 0.01, 0.006, 0.003, 0.001 and 0 μM. The 41o− assay plates were incubated at 37° C. w/CO2, the H441 assay plates were incubated at 27° C. w/CO2, each overnight for two nights.
Assay Result Determination
After being brought to room temperature, the assay plate liquid was removed. 30 uls of Luminata Forte (Millipore ELLUF0100) was added per well and incubated at room temperature for 10 min. The plates were then read on a Topcount, protocol LumiMatti (CPS, luminescence). The data was analyzed for % of maximum, maximum VX809 signal, and EC50 using Pearl and SPEED tools.

[2] = molecular target: T2, CFTR (ΔF508 homozygous CF-HBE cells) (Homo sapiens, UniProt P13569, DEL508-508); test: TECC24 AUC fold over DMSO @10 uM: CFTR-mediated transepithelial chloride transport in primary CF-HBE cells; type: cell-based; conditions: 10 μM test agent, 48 hours, forskolin-stimulated IEQ AUC divided by vehicle AUC
T2 construct: Primary human bronchial epithelial cells from a ΔF508 homozygous CF donor; host or cells: primary CF-HBE cells (ΔF508/ΔF508 donor)
T2 sequence (P13569 with tags, fused parts or gaps DEL508-508): as above
Method: Example 37: TECC24 AUC Fold Over DMSO @10 uM
The effects of a test agent on CFTR-mediated transepithelial chloride transport was measured using TECC24 recording analysis. Test agents were solubilized in DMSO. Solubilized test agents were mixed with incubation medium containing DMEM/F12, Ultroser G (2%; Crescent Chemical, catalog #67042), Hyclone Fetal Clone 11(2%; GE Healthcare, catalog #SH30066.02), bovine brain extract (0.25%; Lonza, catalog #CC-4098), insulin (2.5 μg/mL), IL-13 (10 ng/mL), hydrocortisone (20 nM), transferrin (2.5 μg/mL), triiodothyronine (500 nM), ethanolamine (250 nM), epinephrine (1.5 μM), phosphoethanolamine (250 nM), and retinoic acid (10 nM). Primary human bronchial epithelial cells from a ΔF508 homozygous CF donor (CF-HBE cells; from University of North Carolina Cystic Fibrosis Tissue Procurement Center), grown on Transwell HTS 24-well cell culture inserts (Costar, catalog #3378), were exposed to test agents or controls dissolved in incubation medium. The CF-HBE cells were cultured at 36.5° C. for 48 hours before TECC24 recordings were performed in the presence or absence of test agent, a positive control or vehicle (DMSO).
Following incubation, the transwell cell culture inserts containing the test agent or control-treated CF-HBE cells were loaded onto a TECC24 apparatus (TECC v7 or MTECC v2; EP Design) to record the transepithelial voltage (VT) and resistance (TEER) using 4 AgCl electrodes per well configured in current-clamp mode. The apical and basolateral bath solutions both contained (in mM) 140 NaCl, 5 KCl, 2 CaCl2, 1 MgCl2, 10 Hepes, and 10 glucose (adjusted to pH 7.4 with NaOH). To inhibit basal Na+ absorption, the ENaC inhibitor benzamil (10 μM) was added to the bath. Then, the adenylate cyclase activator, forskolin (10 μM), was added to the bath to activate CFTR. The forskolin-stimulated Cl— transport was halted by addition of CFTR inhibitor-172 (20 μM) to the bath at the end of the experiment to confirm specificity. VT and TEER recordings were digitally acquired at routine intervals using TECC or MTECC software (EP Design). VT and TEER were transformed into equivalent transepithelial Cl-current (IEQ), and the Area Under the Curve (AUC) of the IEQ time course between forskolin and CFTR inhibitor-172 addition is generated using Excel (Microsoft). Efficacy is expressed as the ratio of the test agent AUC divided by vehicle AUC. EC50s based on AUC are generated using the non-linear regression log(agonist) vs. response function in Prism software (GraphPad) with Hill Slope fixed=1.
If a test agent increased the AUC of the forskolin-stimulated IEQ relative to vehicle in CF-HBE cells, and this increase was inhibited by CFTR inhibitor-172, then the test agent was considered a CFTR corrector.

EC50 [1] | Emax [1] | TECC24 AUC fold over DMSO [2] | Structure (SMILES)
2780 nM | 81.2% | C (“C” refers to AUC @10 μM < 4) | CCC(C)(C)[C@H](NC(=O)c1ccc2sc(-c3cscn3)cc2c1OCc1ccc(C(F)(F)F)cc1)C(=O)O [Compound 33-20, (2S)-3,3-dimethyl-2-(2-(thiazol-4-yl)-4-((4-(trifluoromethyl)benzyl)oxy)-benzo[b]thiophene-5-carboxamido)pentanoic acid]
358 nM | 179% | A (“A” refers to AUC @10 μM > 6) | CCC(C)(C)[C@H](NC(=O)c1ccc2sc(Cl)c(C)c2c1OCc1ccc(OC(F)(F)F)cc1)C(=O)O [Compound 34-1, (S)-2-(2-chloro-3-methyl-4-((4-(trifluoromethoxy)benzyl)oxy)-benzo[b]thiophene-5-carboxamido)-3,3-dimethylpentanoic acid]
647 nM | 308% | A (“A” refers to AUC @10 μM > 6) | CCC(C)(C)[C@H](NC(=O)c1ccc2sc(C)c(Cl)c2c1OCc1ccc(C(F)(F)F)cc1)C(=O)O [Compound 33-1, (2S)-2-[[3-chloro-2-methyl-4-[[4-(trifluoromethyl)phenyl]methoxy]benzothiophene-5-carbonyl]amino]-3,3-dimethyl-pentanoic acid]
3200 nM | 112% | C (“C” refers to AUC @10 μM < 4) | CC(C)(c1ccccc1)C(NC(=O)c1ccc2sccc2c1OCC1CCC(F)(F)CC1)C(=O)O (stereo not drawn) [Compound 32-2, 2-(4-((4,4-difluorocyclohexyl)methoxy)-benzo[b]thiophene-5-carboxamido)-3-methyl-3-phenylbutanoic acid]
503 nM | 177% | B (“B” refers to AUC @10 μM between 4-6) | CC(C)(C)[C@H](NC(=O)c1ccc2cc(Cl)sc2c1OCc1ccc(C(F)(F)F)cc1)C(=O)O [Compound 33-33, (2S)-2-(2-chloro-7-((4-(trifluoromethyl)benzyl)oxy)-benzo[b]thiophene-6-carboxamido)-3,3-dimethylbutanoic acid]
427 nM | 255% | A (“A” refers to AUC @10 μM > 6) | CCC(C)(C)[C@H](NC(=O)c1ccc2cc(C)sc2c1OCc1ccc(C(F)(F)F)cc1)C(=O)O [Compound 33-19, (2S)-3,3-dimethyl-2-(2-methyl-7-((4-(trifluoromethyl)benzyl)oxy)-benzo[b]thiophene-6-carboxamido)pentanoic acid]
4120 nM | 143% | C (“C” refers to AUC @10 μM < 4) | CC(C)(C)[C@H](NC(=O)c1ccc2sccc2c1OCc1nc2ccccc2s1)C(=O)O [Compound 32-13, (2S)-2-(4-(benzo[d]thiazol-2-ylmethoxy)-benzo[b]thiophene-5-carboxamido)-3,3-dimethylbutanoic acid]
854 nM | 152% | B (“B” refers to AUC @10 μM between 4-6) | CCC(C)(C)[C@H](NC(=O)c1ccc2cc(C(F)(F)F)sc2c1OCc1ccc(OC(F)(F)F)cc1)C(=O)O [Compound 33-29, (2S)-3,3-dimethyl-2-(7-((4-(trifluoromethoxy)benzyl)oxy)-2-(trifluoromethyl)-benzo[b]thiophene-6-carboxamido)pentanoic acid]
102 nM | 263% | A (“A” refers to AUC @10 μM > 6) | CCC(C)(C)[C@H](NC(=O)c1ccc2sc(C)cc2c1OCc1ccc(OC(F)(F)F)cc1)C(=O)O [Compound 33-30, (2S)-3,3-dimethyl-2-(2-methyl-4-((4-(trifluoromethoxy)benzyl)oxy)-benzo[b]thiophene-5-carboxamido)pentanoic acid]
562 nM | 130% | A (“A” refers to AUC @10 μM > 6) | CCC(C)(C)[C@H](NC(=O)c1ccc2cc(C(F)(F)F)sc2c1OCc1ccc(C(F)(F)F)cc1)C(=O)O [Compound 33-28, (2S)-3,3-dimethyl-2-(2-(trifluoromethyl)-7-((4-(trifluoromethyl)benzyl)oxy)-[b]thiophene-6-carboxamido)pentanoic acid]
662 nM | 286% | A (“A” refers to AUC @10 μM > 6) | Cc1nc2c(OCc3ccc(C(F)(F)F)cc3)c(C(=O)N[C@H](C(=O)O)C(C)(C)C)ccc2s1 [Compound 35-3, (2S)-3,3-dimethyl-2-[[2-methyl-4-[[4-(trifluoromethyl)phenyl]methoxy]-1,3-benzothiazole-5-carbonyl]amino]butanoic acid]
340 nM | 218% | B (“B” refers to AUC @10 μM between 4-6) | CCC(C)(C)[C@H](NC(=O)c1ccc2sc(CCC(C)C)cc2c1OCc1ccc(C(F)(F)F)cc1)C(=O)O [Compound 33-16, (2S)-2-(2-isopentyl-4-((4-(trifluoromethyl)benzyl)oxy)-benzo[b]thiophene-5-carboxamido)-3,3-dimethylpentanoic acid]
7310 nM | 85.3% | C (“C” refers to AUC @10 μM < 4) | CCC(C)(C)[C@H](NC(=O)c1ccc2sccc2c1OCC1CCC(F)(F)CC1)C(=O)O [Compound 32-10, (2S)-2-(4-((4,4-difluorocyclohexyl)methoxy)-benzo[b]thiophene-5-carboxamido)-3,3-dimethylpentanoic acid]
1130 nM | 250% | A (“A” refers to AUC @10 μM > 6) | CCC(C)(C)[C@H](NC(=O)c1ccc2sc(C)c(Cl)c2c1OCc1ccc(OC(F)(F)F)cc1)C(=O)O [Compound 33-9, (2S)-2-(3-chloro-2-methyl-4-((4-(trifluoromethoxy)benzyl)oxy)-benzo[b]thiophene-5-carboxamido)-3,3-dimethylpentanoic acid]
